Reference: patent publication US6914045B2, “Glycopeptide antibiotics” (Wyeth Holdings Corporation, priority 2001, dated 2005)
Read-outs that look alike come from different tables or passages of the source.

How the values were obtained:
Experiment in all cases: in vitro antibacterial evaluation, MIC by broth dilution
Assay type in all cases: cell-based
[1] = tested on: Escherichia coli
Outline: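 Broth dilution MIC per NCCLS M7-A2 in Mueller-Hinton II medium, inoculum 5×10^5 CFU/mL, antibiotic range 64-0.06 μg/mL. MIC taken as lowest concentration inhibiting growth.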

[2] = tested on: Enterococcus sp.
Outline: (§1)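 Broth dilution per NCCLS M7-A2 in Mueller-Hinton II medium, inoculum 5×10^5 CFU/mL, antibiotic range 64-0.06 μg/mL. MIC taken as lowest concentration inhibiting growth; Gram-positive panel includes recent clinical isolates resistant to methicillin, penicillin and/or vancomycin.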

[3] = tested on: Streptococcus sp.
Outline: as §1

[4] = tested on: Staphylococcus sp.
Outline: as §1

[5] = broth dilution, 18 hours at 35° C.

Cyclo[3-[[2-(2,3,4,6-tetra-O-benzoylhexopyranosyl)amino]-1,3-benzoxazol-5-yl]alanyl-3-(2-iminoimidazolidin-4-yl)seryl-3-(3-hexopyranosyl-2-iminoimidazolidin 4-yl)seryl-serylglycyl-β-methylphenylalanyl] [Example 44]
64 mg/L: MIC Escherichia coli (GC 4560) [1] | MIC Coagulase Negative Staphylococcus (GC 4547) [4] | MIC Staphylococcus aureus (ATCC 29213) [4] | MIC Staphylococcus aureus (GC 1131) [4] | MIC Staphylococcus aureus (GC 3051) [4] | MIC Staphylococcus aureus (GC 4541) [4] | MIC Staphylococcus aureus (GC 4542) [4] | MIC Staphylococcus haemolyticus (GC 4546) [4]
2 mg/L: MIC Coagulase Negative Staphylococcus (GC 4549) [4]
>64 mg/L: MIC Escherichia coli (ATCC 25922) [1] | MIC Escherichia coli (GC 4559) [1]
32 mg/L: MIC Enterococcus faecalis (GC 3059) [2] | MIC Enterococcus faecalis (GC 4554) [2] | MIC Enterococcus faecium (GC 4556) [2] | MIC Streptococcus pneumoniae (GC 4565) [3] | MIC Staphylococcus aureus (GC 3053) [4] | MIC Staphylococcus aureus-SMITH (GC 4543) [4]
4 mg/L: MIC Enterococcus avium (GC 4558) [2] | MIC Streptococcus pyogenes (GC 4563) [3]
8 mg/L: MIC Enterococcus faecalis (GC 4553) [2] | MIC Enterococcus faecium (GC 2243) [2] | MIC Enterococcus faecium (GC 4557) [2] | MIC Streptococcus pneumoniae (ATCC 6301) [3] | MIC Coagulase Negative Staphylococcus (GC 4548) [4] | MIC Coagulase Negative Staphylococcus (GC 6257) [4]
16 mg/L: MIC Enterococcus faecalis (ATCC 29212) [2] | MIC Enterococcus faecalis (GC 2242) [2] | MIC Enterococcus faecalis (GC 2691) [2] | MIC Enterococcus faecalis (GC 4552) [2] | MIC Enterococcus faecalis (GC 6189) [2] | MIC Streptococcus agalactiae (GC 4564) [3] | MIC Streptococcus pneumoniae (GC 1894) [3] | MIC Coagulase Negative Staphylococcus (GC 4551) [4] | MIC Staphylococcus aureus (GC 4544) [4] | MIC Staphylococcus aureus (GC 4545) [4]

CC(C1CCCCC1)C1NC(=O)CNC(=O)C(CO)NC(=O)C(C(O)C2CNC(=N)N2C2OC(CO)C(O)C(O)C2O)NC(=O)C(C(O)C2CNC(=N)N2)NC(=O)C(C[C@H]2CC[C@H](O)CC2)NC1=O (stereo partly drawn) [Example 54a, Cyclo[3-(anti-4-hydroxycyclohexyl)alanyl-3-(2-iminoimidazolidin-4-yl)seoyl-3-(3-hexopyranosyl-2-iminoimidazolidin-4-yl)serylserylglycyl-3-cyclohexyl-2-aminobutanoyl]]
128 mg/L: MIC Enterococcus avium (GC 4558) ([2]; Enterococcus avium (GC 4558), broth dilution, 18 hours at 35° C.) | MIC Enterococcus faecium (GC 4557) ([2]; Enterococcus faecium (GC 4557), broth dilution, 18 hours at 35° C.) | MIC Enterococcus avium (GC 4558) [2, 5] | MIC Enterococcus faecium (GC 4557) [2, 5] | MIC Streptococcus pneumoniae (GC 1894) [3, 5] | MIC Streptococcus pneumoniae (GC 1894) ([3]; broth dilution, 18 hours at 35° C., strain GC 1894) | MIC Staphylococcus haemolyticus (GC 4546) ([4]; strain GC 4546, broth dilution, 18 hours at 35° C.) | MIC Coagulase Negative Staphylococcus (GC 4547) ([4]; strain GC 4547, broth dilution, 18 hours at 35° C.)
>128 mg/L: MIC Escherichia coli (ATCC 25922) ([1]; 18 hours at 35° C.) | MIC Escherichia coli (GC 4559) ([1]; 18 hours at 35° C.) | MIC Escherichia coli (GC 4560) ([1]; 18 hours at 35° C.) | MIC Enterococcus faecalis (ATCC 29212) ([2]; Enterococcus faecalis (ATCC 29212), broth dilution, 18 hours at 35° C.) | MIC Enterococcus faecalis (GC 4552) ([2]; Enterococcus faecalis (GC 4552), broth dilution, 18 hours at 35° C.) | MIC Enterococcus faecalis (GC 4553) ([2]; Enterococcus faecalis (GC 4553), broth dilution, 18 hours at 35° C.) | MIC Enterococcus faecalis (GC 4554) ([2]; Enterococcus faecalis (GC 4554), broth dilution, 18 hours at 35° C.) | MIC Enterococcus faecalis (GC 6189) ([2]; Enterococcus faecalis (GC 6189), broth dilution, 18 hours at 35° C.) | MIC Enterococcus faecium (GC 2243) ([2]; Enterococcus faecium (GC 2243), broth dilution, 18 hours at 35° C.) | MIC Enterococcus faecium (GC 4556) ([2]; Enterococcus faecium (GC 4556), broth dilution, 18 hours at 35° C.) | MIC Enterococcus faecalis (ATCC 29212) [2, 5] | MIC Enterococcus faecalis (GC 2242) [2, 5] | MIC Enterococcus faecalis (GC 2691) [2, 5] | MIC Enterococcus faecalis (GC 3059) [2, 5] | MIC Enterococcus faecalis (GC 4552) [2, 5] | MIC Enterococcus faecalis (GC 4553) [2, 5] | MIC Enterococcus faecalis (GC 4554) [2, 5] | MIC Enterococcus faecalis (GC 6189) [2, 5] | MIC Enterococcus faecium (GC 2243) [2, 5] | MIC Enterococcus faecium (GC 4556) [2, 5] | MIC Enterococcus faecalis (GC 2242) ([2]; broth dilution, 18 hours at 35° C., strain GC 2242) | MIC Enterococcus faecalis (GC 2691) ([2]; broth dilution, 18 hours at 35° C., strain GC 2691) | MIC Enterococcus faecalis (GC 3059) ([2]; broth dilution, 18 hours at 35° C., strain GC 3059) | MIC Streptococcus agalactiae (GC 4564) [3, 5] | MIC Streptococcus pneumoniae (ATCC 6301) [3, 5] | MIC Streptococcus pneumoniae (GC 4565) [3, 5] | MIC Streptococcus pyogenes (GC 4563) [3, 5] | MIC Streptococcus pneumoniae (ATCC 6301) ([3]; broth dilution, 18 hours at 35° C., strain ATCC 6301) | MIC Streptococcus pyogenes (GC 4563) ([3]; broth dilution, 18 hours at 35° C., strain GC 4563) | MIC Streptococcus agalactiae (GC 4564) ([3]; broth dilution, 18 hours at 35° C., strain GC 4564) | MIC Streptococcus pneumoniae (GC 4565) ([3]; broth dilution, 18 hours at 35° C., strain GC 4565) | MIC Staphylococcus aureus (ATCC 29213) ([4]; strain ATCC 29213, broth dilution, 18 hours at 35° C.) | MIC Staphylococcus aureus (GC 1131) ([4]; strain GC 1131, broth dilution, 18 hours at 35° C.) | MIC Staphylococcus aureus (GC 3051) ([4]; strain GC 3051, broth dilution, 18 hours at 35° C.) | MIC Staphylococcus aureus (GC 3053) ([4]; strain GC 3053, broth dilution, 18 hours at 35° C.) | MIC Staphylococcus aureus (GC 4541) ([4]; strain GC 4541, broth dilution, 18 hours at 35° C.) | MIC Staphylococcus aureus (GC 4542) ([4]; strain GC 4542, broth dilution, 18 hours at 35° C.) | MIC Staphylococcus aureus-SMITH (GC 4543) ([4]; strain GC 4543, broth dilution, 18 hours at 35° C.) | MIC Staphylococcus aureus (GC 4544) ([4]; strain GC 4544, broth dilution, 18 hours at 35° C.) | MIC Staphylococcus aureus (GC 4545) ([4]; strain GC 4545, broth dilution, 18 hours at 35° C.) | MIC Coagulase Negative Staphylococcus (GC 4548) ([4]; strain GC 4548, broth dilution, 18 hours at 35° C.) | MIC Coagulase Negative Staphylococcus (GC 4549) ([4]; strain GC 4549, broth dilution, 18 hours at 35° C.) | MIC Coagulase Negative Staphylococcus (GC 4551) ([4]; strain GC 4551, broth dilution, 18 hours at 35° C.)
